How the values were obtained:
[1] = Plasma pharmacokinetics of GDC-0810 and glucuronide metabolites; assay type: in vivo, human; conditions: steady state, 600-mg QD, non-fasted condition
Description: Blood samples were collected for pharmacokinetic assessments. Tumor assessments were performed at screening and every 8 weeks from cycle 1, day 1 (C1D1). Radiographic assessment of objective tumor response or disease progression was based on Response Evaluation Criteria in Solid Tumors (RECIST v1.1). Transvaginal ultrasound scans were performed to monitor endometrial thickness at screening, at every 6 months from C1D1, and at the end of treatment. Imaging with [^18F]-fluoroestradiol positron emission tomography (FES-PET) was performed to quantify ER expression in tumors and to assess for pharmacodynamic response. Further assessment details are provided in Supplementary Methods.
CYP2B6 and CYP2C enzymes. […]
Blood samples were collected for pharmacokinetic assessment on lead-in day −7 and cycle 2 day 1 (C2D1) at predose (0 hour) and postdose (0.5, 1, 1.5, 2, 3, 4, 6, 8, and 24 hours), (plus at 48 hours postdose for day−7). Full plasma pharmacokinetic profiles were obtained for GDC-0810 and its glucuronide metabolites (acyl-glucuronide and N-glucuronide) using a validated liquid chromatography/ tandem mass spectrometry method, and analyzed using non-compartmental methods for all patients in the dose escalation cohorts.
Tumor assessments were performed at screening and every 8 weeks from cycle-1, day-1 […]

MBC = tested on: MBC; design: method as in PMID 34906954; conditions: cited from earlier work
ER = tested on: ER; design: method as in PMID 25380844; conditions: patients receiving fulvestrant; cited from earlier work
[2] = design: method as in PMID 32919527; conditions: cited from earlier work

CC/C(=C(/c1ccc(/C=C/C(=O)O[C@@H]2O[C@H](C(=O)O)[C@@H](O)[C@H](O)[C@H]2O)cc1)c1ccc2[nH]ncc2c1)c1ccc(F)cc1Cl [GDC-0810-acyl-glucuronide]
average plasma exposure of metabolite relative to parent GDC-0810 [1]: ~10%

CCNCCc1ccc(CN(CC)c2cc(OC)ccc2[C@@H]2CCc3cc(O)ccc3C2)cc1 [elacestrant]
PFS (MBC; patients with MBC who received endocrine + CDK4/6 previously): 2.8 months
median PFS (MBC; patients with tumors harboring ESR1 mutations): 3.8 months

C[C@]12CC[C@@H]3c4ccc(O)cc4C[C@@H](CCCCCCCCC[S+]([O-])CCCC(F)(F)C(F)(F)F)[C@H]3[C@@H]1CC[C@@H]2O (some centres unmarked) [fulvestrant]
patients with residual ER activity by FES-PET (ER): 38%
solubility [2]: poor solubility

From publication PMC9823088, “The oral selective estrogen receptor degrader GDC-0810 (ARN-810) in postmenopausal women with hormone receptor-positive HER2-negative (HR + /HER2 −) advanced/metastatic breast cancer” (Breast Cancer Research and Treatment, 2022)
